Laboratory results published in patent US20260327239A1, “COMPOUNDS FOR COVALENT INHIBITION OF SHP2” (Purdue Research Foundation, priority 2023, published 2026).

Legend:
[1] = biological target: SHP1 (Homo sapiens, UniProt P29350); assay: Time-dependent IC50 determination, SHP1 (10 min preincubation, pNPP); assay type: biochemical
Method: (§1) During active compound characterization, other common PTPs, including SHP1. PTP1B, and LYP, were counter-screened. Compounds were incubated for 10 minutes with the corresponding PTP (4 μM) before being diluted 50-fold into a solution containing excess substrate para-nitrophenyl phosphate (10 mM) to monitor the remaining activity. […] This was not expected, given their high sequence and structural homology. […] While unexpected, the lower sequence homology provides a rationale for the observed selectivity.
(§2) Inhibitors were evaluated for their ability to inhibit the reaction catalyzed by SHP2 using para-nitrophenyl phosphate (pNPP) as a substrate at pH 7 and 25° C. The reaction was started in a clear flat-bottom 96-well plate (Corning Costar Assay Plate #9017) by the addition of 25 μL of 4 μM PTP in DMG buffer to 25 μl of 2× inhibitor (final concentrations=2 μM PTP, 100-0 μM inhibitor). Reactions were incubated for 1 or 10 minutes before transferring 4 μL into 196 μL of 10.1 mM pNPP in DMG buffer (final concentration=40 nM PTP, 10 mM pNPP). These wells were then allowed to react for 10, 45, or 3 minutes for SHP1 and SHP2, LYP, PTP1B respectively before quenching with 50 μL of 5 M NaOH. Plates were then read for absorbance at 405 nm using a CLARIOstar^Plus plate reader (BMG Labetch). […]

[2] = biological target: T1, SHP2 (Homo sapiens, UniProt Q06124); assay: Covalent adduct formation on SHP2 by intact protein LC-MS; assay type: binding; settings: 10 μM SHP2, 60 minutes
T1 construct: 4× solution of SHP2 (residues 224-528)
T1 sequence (Q06124 224-528): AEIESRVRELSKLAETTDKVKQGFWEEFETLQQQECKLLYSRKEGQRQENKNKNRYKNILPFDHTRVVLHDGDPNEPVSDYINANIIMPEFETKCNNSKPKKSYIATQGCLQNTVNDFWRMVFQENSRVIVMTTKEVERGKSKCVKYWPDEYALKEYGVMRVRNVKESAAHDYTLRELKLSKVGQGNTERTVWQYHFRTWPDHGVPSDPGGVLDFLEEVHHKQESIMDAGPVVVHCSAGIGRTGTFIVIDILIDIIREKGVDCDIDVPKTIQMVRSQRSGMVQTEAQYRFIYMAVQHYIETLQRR
Method: To validate covalent modification of SHP2 by the active compounds, adduct formation on SHP2 was measured by intact protein liquid chromatography-mass spectrometry (LC-MS). With intact protein LC-MS, multiply charged states of the protein species can be deconvoluted to achieve the total mass(es). Compounds were incubated with 10 μM SHP2 for 60 minutes before being quenched with acetonitrile for LC-MS analysis by electrospray ionization (ESI) in positive mode. […] (33), and (42) (FIGS. 3A and 3B).
To unfold protein and quench protein-ligand reactivity, 10 μL of treated or untreated 10 μM SHP2 was diluted in 40 μL of 80% (v/v) formic acid initially, followed by 150 μL of LC-MS buffer (50/50 water/acetonitrile with 0.1% formic acid). 20-25 pmol per sample was analyzed by LC/MS (Agilent 1260 Infinity II with a ZORBAX Rapid Resolution High Definition 300 Å Stable Bond C3, 2.1×100 mm, 1.8 μm column) attached to an Agilent 6129 quadrupole mass spectrometer in positive ion mode. The column was held at 45° C. Mobile solution A was 0.1% formic acid in water, and mobile phase B was 0.1% formic acid in acetonitrile. The gradient used was hold at 10% B for 5 min, increase linearly to 80% B for 15 min, and then hold at 80% B for 5 min. The mass data were collected at a range of 600-1500 m/z. Raw data were processed using MestReNova. For all samples, the deconvoluted mass was calculated by taking the m/z range of 730-1100 Da, and deconvoluted mass range from 36500-37200 Da. An abundance threshold of 10% and tolerance of 30 ppm was set for deconvolution. Unreacted SHP2's total deconvoluted mass was 36602±10 Da; for each deconvolution, the highest deconvoluted mass intensity was utilized as the mass pivot point to determine and identify reacted SHP2 adducts. To calculate the percent SHP2 reacted, the relative abundance intensity of reacted SHP2 was divided by the total relative abundance intensities of unreacted and reacted SHP2.

[3] = biological target: T2, LYP (Homo sapiens, UniProt Q9Y2R2); assay: Time-dependent IC50 determination, LYP (10 min preincubation, pNPP); assay type: biochemical
T2 sequence (Q9Y2R2 1-807): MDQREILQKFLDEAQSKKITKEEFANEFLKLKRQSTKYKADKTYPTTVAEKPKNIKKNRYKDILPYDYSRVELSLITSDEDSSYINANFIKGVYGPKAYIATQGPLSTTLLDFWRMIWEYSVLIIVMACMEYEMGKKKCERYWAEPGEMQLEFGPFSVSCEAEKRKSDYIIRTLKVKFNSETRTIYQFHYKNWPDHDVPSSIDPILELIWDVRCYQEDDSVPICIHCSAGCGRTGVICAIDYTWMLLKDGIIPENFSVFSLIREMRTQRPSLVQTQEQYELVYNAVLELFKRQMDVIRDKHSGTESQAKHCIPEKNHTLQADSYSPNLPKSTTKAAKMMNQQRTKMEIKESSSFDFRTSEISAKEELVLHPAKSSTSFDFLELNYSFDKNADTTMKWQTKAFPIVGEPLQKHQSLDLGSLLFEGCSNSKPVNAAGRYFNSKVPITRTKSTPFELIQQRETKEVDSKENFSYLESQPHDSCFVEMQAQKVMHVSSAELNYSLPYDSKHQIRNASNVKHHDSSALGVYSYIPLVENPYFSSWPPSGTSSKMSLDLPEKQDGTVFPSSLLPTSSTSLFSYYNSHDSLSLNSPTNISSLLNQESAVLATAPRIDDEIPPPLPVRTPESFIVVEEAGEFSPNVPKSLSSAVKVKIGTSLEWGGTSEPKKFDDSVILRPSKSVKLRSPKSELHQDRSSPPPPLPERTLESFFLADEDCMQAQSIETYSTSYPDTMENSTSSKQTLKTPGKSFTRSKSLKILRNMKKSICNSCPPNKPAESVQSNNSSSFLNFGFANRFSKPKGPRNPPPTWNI
Method: as §1, §2

[4] = biological target: T1, SHP2; assay: Time-dependent IC50 determination, SHP2 (10 min preincubation, pNPP); assay type: biochemical; settings: 10 mM pNPP, pH 7, 25° C, read-out: 10 Minute IC50
Method: as §1, §2

Sequence of SHP1 (P29350 whole entry): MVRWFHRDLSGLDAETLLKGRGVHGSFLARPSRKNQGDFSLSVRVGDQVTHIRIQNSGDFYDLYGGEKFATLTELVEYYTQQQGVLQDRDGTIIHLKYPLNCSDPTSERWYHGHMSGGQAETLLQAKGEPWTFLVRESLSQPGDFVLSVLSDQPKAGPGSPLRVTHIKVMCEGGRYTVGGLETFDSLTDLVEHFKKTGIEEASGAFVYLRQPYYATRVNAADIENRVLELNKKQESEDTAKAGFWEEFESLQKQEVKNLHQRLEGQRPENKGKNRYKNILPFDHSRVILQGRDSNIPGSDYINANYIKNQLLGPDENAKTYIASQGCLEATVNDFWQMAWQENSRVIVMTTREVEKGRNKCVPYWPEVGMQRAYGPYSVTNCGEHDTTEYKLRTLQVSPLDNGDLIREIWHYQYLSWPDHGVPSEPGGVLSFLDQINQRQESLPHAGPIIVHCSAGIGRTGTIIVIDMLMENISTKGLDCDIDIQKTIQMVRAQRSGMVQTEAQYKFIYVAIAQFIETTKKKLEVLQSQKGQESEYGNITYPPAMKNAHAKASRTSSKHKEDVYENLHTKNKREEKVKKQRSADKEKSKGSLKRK

IC50 ([1]; SHP1, 10 minutes preincubation, curve not completed (solubility), extrapolated, read-out: 10 Minute IC50): 212 µM | Fold-Selective (10 Minutes) ([1]; SHP2 over SHP1): 13.75 fold | Found Ligand Adduct (mass shift) ([2]; intact protein LC-MS): 461 Da | % SHP2 Reacted (overall adduct formation) ([2]; PVSN at 20 μM, compound 37 at 10 μM): 33% | IC50 ([3]; LYP, 10 minutes preincubation, curve not completed (solubility), extrapolated, read-out: 10 Minute IC50): 495 µM | Fold-Selective (10 Minutes) ([3]; SHP2 over LYP): 31.12 | IC50 [4]: 15.4 µM
Structure (SMILES): C=C1C(=O)[C@@]2(C(=O)N3CCN(c4ccc(I)cc4)CC3)CC(=O)C[C@@H]1C2 [Compound 37]
